Common to all, as to experiment: G-CaMP calcium imaging of OSN axon terminals
Type in all cases: cell-based
Conditions in all cases: 10^-2 odor dilution in paraffin oil, 1 s pulse

For one test, the target named is T1, Or35a (Drosophila melanogaster, UniProt Q9V3Q2).
T1 construct: native receptor in Or35a olfactory sensory neuron of larva; G-CaMP1.3 calcium imaging at axon terminals; with Odorant receptor coreceptor
T1 sequence (Q9V3Q2 1-409): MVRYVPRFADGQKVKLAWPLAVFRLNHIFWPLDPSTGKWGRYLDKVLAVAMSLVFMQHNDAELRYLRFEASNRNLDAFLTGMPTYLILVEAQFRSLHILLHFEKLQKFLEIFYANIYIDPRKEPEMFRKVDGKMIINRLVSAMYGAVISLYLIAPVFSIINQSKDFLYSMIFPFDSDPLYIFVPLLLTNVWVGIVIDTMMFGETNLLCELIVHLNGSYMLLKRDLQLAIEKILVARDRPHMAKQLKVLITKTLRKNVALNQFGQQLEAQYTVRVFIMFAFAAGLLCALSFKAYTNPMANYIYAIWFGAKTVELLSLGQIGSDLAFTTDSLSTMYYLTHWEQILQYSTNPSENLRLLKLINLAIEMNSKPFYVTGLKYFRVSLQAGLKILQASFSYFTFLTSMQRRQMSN
T1 sequence (Q9VNB5 1-486 partner): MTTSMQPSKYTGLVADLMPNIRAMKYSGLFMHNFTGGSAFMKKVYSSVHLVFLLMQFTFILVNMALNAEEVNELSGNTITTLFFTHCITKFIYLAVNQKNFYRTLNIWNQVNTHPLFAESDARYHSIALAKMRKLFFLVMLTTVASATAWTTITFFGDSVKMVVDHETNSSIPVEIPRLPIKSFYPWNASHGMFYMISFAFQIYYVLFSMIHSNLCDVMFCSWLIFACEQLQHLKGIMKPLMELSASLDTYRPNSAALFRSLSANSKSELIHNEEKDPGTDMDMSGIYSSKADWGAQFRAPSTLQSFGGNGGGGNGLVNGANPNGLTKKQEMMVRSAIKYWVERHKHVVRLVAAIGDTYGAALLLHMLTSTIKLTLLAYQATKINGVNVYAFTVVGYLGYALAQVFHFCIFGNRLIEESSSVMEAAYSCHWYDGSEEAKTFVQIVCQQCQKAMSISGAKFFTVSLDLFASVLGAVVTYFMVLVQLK

Another test concerns the target T2, Or42a (Drosophila melanogaster, UniProt Q9V9I2).
T2 construct: native receptor in Or42a olfactory sensory neuron of larva; G-CaMP calcium imaging; with Odorant receptor coreceptor
T2 sequence (Q9V9I2 1-406): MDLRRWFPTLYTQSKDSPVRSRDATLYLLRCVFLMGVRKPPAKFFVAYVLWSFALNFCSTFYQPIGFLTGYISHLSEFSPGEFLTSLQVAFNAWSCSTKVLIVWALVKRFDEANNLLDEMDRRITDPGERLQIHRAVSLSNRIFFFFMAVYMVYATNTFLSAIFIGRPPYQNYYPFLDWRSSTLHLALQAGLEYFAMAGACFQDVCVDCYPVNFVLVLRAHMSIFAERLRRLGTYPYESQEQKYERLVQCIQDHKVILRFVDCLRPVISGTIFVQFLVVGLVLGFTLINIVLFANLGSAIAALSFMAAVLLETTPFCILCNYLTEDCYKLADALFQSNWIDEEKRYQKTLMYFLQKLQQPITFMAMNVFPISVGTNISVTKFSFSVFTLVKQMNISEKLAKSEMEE
T2 sequence (Q9VNB5 1-486 partner): T1 sequence (Q9VNB5 1-486 partner)

In another test the target is T3, Or82a (Drosophila melanogaster, UniProt P82986).
T3 construct: native receptor in Or82a olfactory sensory neuron of larva; G-CaMP1.3 calcium imaging at axon terminals; with Odorant receptor coreceptor
T3 sequence (P82986 1-385): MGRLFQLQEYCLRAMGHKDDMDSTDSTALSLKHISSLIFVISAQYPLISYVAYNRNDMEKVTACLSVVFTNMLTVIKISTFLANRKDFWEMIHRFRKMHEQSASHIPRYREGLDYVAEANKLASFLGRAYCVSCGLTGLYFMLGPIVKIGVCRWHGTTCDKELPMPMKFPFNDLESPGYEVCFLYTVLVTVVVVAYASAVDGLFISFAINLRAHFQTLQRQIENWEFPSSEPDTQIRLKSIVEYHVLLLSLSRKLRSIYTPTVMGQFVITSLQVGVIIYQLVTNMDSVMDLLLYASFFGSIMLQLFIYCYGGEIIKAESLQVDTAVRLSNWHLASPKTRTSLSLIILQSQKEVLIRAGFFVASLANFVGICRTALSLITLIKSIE
T3 sequence (Q9VNB5 1-486 partner): T1 sequence (Q9VNB5 1-486 partner)

Turning to `O=C1CCCCC1` [cyclohexanone], the “G-CaMP calcium imaging of OSN axon terminals” value (“G-CaMP calcium imaging” below) at Or35a is “hexyl acetate and cyclohexanone selectively activated only Or35a”. As to `CCCCCC(C)=O` [2-Heptanone], on Or42a, the “G-CaMP calcium imaging” value is given as 2-Heptanone, which selectively activates Or42a but not Or42b OSNs. Consider `CCCCCCOC(C)=O` [hexyl acetate], for which the “G-CaMP calcium imaging” value on Or35a was “hexyl acetate and cyclohexanone selectively activated only Or35a”.

With `CC(=O)OC/C=C(\C)CCC=C(C)C` [geranyl acetate], the “G-CaMP calcium imaging” value on Or82a is “Or82a-expressing neurons responded only to geranyl acetate”.

Values taken from article PMC2656214, “A circuit supporting concentration-invariant odor perception in Drosophila” (Journal of Biology, 2009).
